Test results: patent US20090074774A1, “Fgfr binding peptides” (priority 2004, published 2009)
Entries after “also recorded” stand apart in the source; their conditions may differ.

Columns and labels:
[1] = tested on: caspase3-like activity in cultures of rat cerebellar granular neurons; experiment: Caspase-3-like activity assay in cerebellar granule neurons; format: cell-based; details: monomeric peptides; for apoptosis-associated Caspase-3-like activity: cells in culture medium depleted of KCl (5 mM); for effect on Caspase-3-like activity compared with high KCl (40 mM): culture medium depleted of KCl
Description: The effect of the peptide is compared to the effect of high concentration of kCl. *P<0.05, **P<0.01, paired student's t-test
Primary cultures of CGN were prepared as described above and apoptosis in cells was induced as described above.
For the caspase-3 assay, cultured CGN were dislodged, collected by centrifugation and lyzed. Aliquots of lysed cells were used for the assay which was performed according to the manufacturer's instructions (Promega, USA),

rats = experiment: Social Recognition Test (SRT); format: in vivo, rat; details: subcutaneous 4 mg/kg; 1 h and 24 h after administration; paired t-test
Description: Results from 8-9 animals expressed as a percentage±SEM. Paired t-test (*P<0.05 and ***P<0.001); B Time spent with social investigation at first meeting (T1) and second meeting (T2) 24 h after peptide/vehicle administration. Results from 9 animals expressed as a percentage±SEM. Paired t-test (*P<0.05).
The animals were evaluated using the SRT, 1 hour and 24 hours after subcutaneous injection of the peptide or vehicle.
Habituation session: On the day before the social recognition test (SRT), one habituation session was performed under similar conditions as the test session for adaptation to the experimental room, time when the test was performed, test cage, and contact with juvenile rats (a different juvenile was used during habituation session and social recognition test). The inter-trial interval for the habituation session was of 1 hour.
Experimental session: Each experimental session consisted of an initial and a test trial separated by an inter-trial (retention) interval of 2 hours.
Initial trial. Adult animals were individually housed 1 hour before testing in the test cage. For testing, a juvenile was placed into the cage and the social investigation by the adult rat was measured cumulatively for 4 min. Sniffing and grooming of body parts, anogenital sniffing and close following were scored. […]

adult male Wistar rats = experiment: Contextual Fear Conditioning Test (CFC); format: in vivo, rat; details: peptide injected immediately after training
Description: The rats were handled for 120 seconds every day for 3 days preceding the first day of the experiment. On day 1 (training), the rats received a 1-second shock (unconditioned stimuli) each minute for two minutes. Animals were injected immediately after training with 5 μl EFL, ABL, CDL or control peptide, or the vehicle. Each treatment group consisted of 11-14 rats. In total, […] animals were evaluated. […] Each rat was rated as either “freezing” or “active”, every 2 seconds, using a time-sampling procedure.

[2] = biological target: T1, recombinant FGFR1 (immobilized FGFR Ig modules 2, 3) (Homo sapiens, UniProt P11362); experiment: Binding of fragments of NCAM F3, 1 to FGFR1 by surface plasmon resonance; details: 25° C., pH 7.4
T1 construct: The FGFR Ig modules 2, 3 were immobilized on a sensor chip CM5; made in house; host or cells: Drosophila S2 cells (Invitrogen)
T1 sequence (P11362 150-365 limits assumed): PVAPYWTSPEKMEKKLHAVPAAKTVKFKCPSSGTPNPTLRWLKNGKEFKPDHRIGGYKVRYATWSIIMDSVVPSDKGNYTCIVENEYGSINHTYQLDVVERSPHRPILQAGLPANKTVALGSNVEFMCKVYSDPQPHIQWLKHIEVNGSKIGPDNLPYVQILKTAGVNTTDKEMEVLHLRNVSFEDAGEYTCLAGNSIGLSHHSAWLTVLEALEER
Excerpt: The binding is given as a response difference (Resp. Diff.) between the binding to the sensor chip with the immobilized FGFR1 modules and a blank sensor chip (unspecific binding). Abbreviations: AB-A strand-loop-B strand (corresponds to the ABL peptide of SEQ ID NO: 2); CD-C strand-loop-D strand (corresponds to the CDL peptide of SEQ ID NO: 1); EF-E strand-loop-F strand (corresponds to the EFL peptide of SEQ ID NO: 5); BC-B strand-loop-C strand of F3, 1 module of NCAM; DE-D strand-loop-E strand of F3, 1 module of NCAM; FG-F strand-loop-G strand of F3, 1 module of NCAM.
The FGFR Ig module 3 and modules 2, 3 were expressed in Drosophila S2 cells (Invitrogen, USA) according to the manufacturer's instructions. All the proteins were purified by affinity chromatography using Ni^2+-NTA resin (Qiagen, USA) and/or ion exchange chromatography and gel filtration.
Binding analysis was performed using a BIAcoreX instrument (Biosensor AB) at 25° C. using 10 mM sodium phosphate pH 7.4, 150 mM NaCl as running buffer. The flow-rate was 5 μl/min. Data were analysed by non-linear curve-fitting using the manufacture's software. The FGFR Ig modules 2, 3 were immobilized on a sensor chip CM5 using amine coupling kit (Biosensor AB) as follows: 1) the two halves of the chip (designated Fc1 and Fc2) were activated by 20 μl activation solution; 2) the protein was immobilized on Fc1 using 12 μl 20 μg/ml protein in 10 mM sodium phosphate buffer pH 6.0; 3) Fc1 and Fc2 were blocked by 35 μl blocking solution. Binding of various compounds to the immobilized FGFR modules was studied as follows: A compound was injected simultaneously into Fc1 (with the immobilized FGFR modules) and Fc2 (with nothing immobilized). The curve representing unspecific binding of the compound to the surface of Fc2 was subtracted from the curve representing binding of the protein to the immobilized FGFR modules and the surface of Fc1. The resulting curve was used for analysis. The results of the binding experiments are present on FIG. 4.

[3] = tested on: rat cerebellar granular neurons; experiment: Survival assay of cerebellar granule neurons (apoptosis induced by low KCl); format: cell-based; details: for survival of CGN in culture: peptides as dendrimers (CDLd, EFLd, ABLd), apoptosis induced by 5 mM KCl, two days; for survival effect compared with the C3 peptide and GDNF: peptides as dendrimers, FIG. 2A
Description: The effect of the peptides is compared to the effect of glia-derived neurotrophic factor (GDNF) and dendrimeric form of the C3 peptide (C3d). […] Paired student's t-test.
Primary cultures of CGN were plated at a density of 100,000 cells/cm^2 on poly-L-lysine coated 8-well permanox slides in Neurobasal-A medium (Gibco, BRL) supplemented with 2% (v/v) B27, 0.5% (v/v) glutamax, 100 U/ml penicillin, 100 μg/ml streptomycin and KCl, making the final concentration of KCl in the medium 40 mM. 24 hours after plating, cytosine-β-D-arabinofuranoside (Ara-C; Sigma-Aldrich) was added to a final concentration of 10 μM to avoid proliferation of glial cells, after which the neurons were allowed to differentiate for further six days at 37° C. Apoptotic cell death was induced by washing twice and changing the medium to Basal Medium Eagle (BME; Gibco BRL) supplemented with 1% (v/v) glutamine, 100 U/ml penicillin and 100 μg/ml streptomycin, 3.5 g D-glucose/l and 1% (v/v) sodium pyruvate (Gibco BRL) together with various concentrations of peptide. Thereby the concentration of potassium in the cultures was reduced to 5 mM KCl. Two days after induction of apoptosis, the cells were fixed with 4% formaldehyde and stained with Hoechst 33258 as described for the survival assay employing hippocampal neurons.
The assay is performed as described by D'Mello et al., (1993) (Proc Natl Acad Sci U S A. 90:10989-93).

[4] = tested on: rat cerebellar granular neurons (CGNs); experiment: Stimulation of neurite outgrowth of cerebellar granule neurons in culture; format: cell-based; details: for stimulation of neurite outgrowth: CGNs from 7-day-old rats, peptide treatment 24 h, culture without substrate; for effect of FGFR inhibitor on neurite outgrowth stimulated by EFL: CGNs
Description: B. Neurite outgrowth stimulated by EFL is inhibited by SU5402, an inhibitor of fibroblast growth factor receptor 1 (FGFR1). Results from four independent experiments are in all cases expressed as a percentage±SEM, with non-treated control cells set at 100%. *P<0.05, **P<0.01, ***P<0.001, compared with control. Paired student's t-test. For experiments, CGNs from 7-old-day rats were treated with the peptides for 24 hr. The cultures were fixed in 4% paraformaldehyde, followed by blocking with 1% BSA and then immunostained with rabbit anti-rat GAP-43 primary antibodies, and then with secondary Alexa Fluor®488 goat anti-rabbit antibodies.
Cerebellar granule neurons (CGN) were prepared from postnatal day seven Wistar rats largely as previously described (Neiiendam et al, (2004) J. Neurochem. 91(4):920-35). Cerebellar tissue was dissected in modified Krebs-Ringer solution kept on ice, and treated as described for the hippocampal neurons above. All cell cultures were incubated at 37° C. in a humidified atmosphere containing 5% CO2. All animals were handled in accordance with the national guidelines for animal welfare.
Dissociated cells were plated at a density of 10,000 cells/cm^2 on uncoated 8-well permanox Lab-Tek chamber slides in Neurobasal medium supplemented with 0.4% (w/v) bovine serum albumin (BSA; Sigma-Aldrich), 2% (v/v) B27 Neurobasal supplement, 1% (v/v) glutamax, 100 U/ml penicillin, 100 μg/ml streptomycin and 2% 1 M HEPES (all from Gibco, BRL). Peptide solutions without or with inhibitors of various signal transduction pathways were added to a total volume of 300 μl/cm^2, and the slides were incubated at 37° C. After 24 hours, the neurons were fixed with 4% (v/v) formaldehyde for 20 minutes and thereafter immunostained using primary rabbit antibodies against GAP-43 and Alexa Fluor secondary goat anti-rabbit antibodies. Images of at least 200 neurons for each group in each individual experiment were obtained systematically by using computer assisted fluorescence microscopy as previously described (Ronn et al., 2000 op. cit.). Briefly, a Nikon Diaphot inverted microscope with a Nikon Plan 20× objective (Nikon, Tokyo, Japan) coupled to a video camera (Grundig Electronics, Germany) was used for recordings. The same software package as described above for the dopaminergic neurite outgrowth assay was used to process the recorded images.

[5] = tested on day 8 after conditioning, placebo/control 32%

## TIMGLKPETRYAVR (TIMGLKPETRTYAVR; EFL peptide, fragment of NCAM F3,1) [E strand-loop-F strand fragment of NCAM F3, 1, used as positive control]
[1]
  apoptosis-associated Caspase-3-like activity: inhibit
  effect on Caspase-3-like activity compared with high KCl (40 mM): comparable
rats
  difference between T1 and T2 of the same animal (presence of social memory): significant differences between T1 and T2
Adult male Wistar rats; tested on day 1 after conditioning, placebo/control 40.0%
  time of freezing: approximately 50.3%
Adult male Wistar rats; [5]
  time of freezing: 42.5%
[2]
  direct binding to FGFR (SPR): capable of direct binding
[3]
  survival of CGN in culture: significantly promote survival
  survival effect compared with the C3 peptide and GDNF: higher
[4]
  stimulation of neurite outgrowth: strong stimulators; also recorded: stimulate neurite outgrowth

## Cc1c[nH]c(/C=C2\C(=O)Nc3ccccc32)c1CCC(=O)O [SU 5402]
[4]
  effect of FGFR inhibitor on neurite outgrowth stimulated by EFL: abolished
[4]; listed as SU5402
  effect of FGFR inhibitor on neurite outgrowth stimulated by EFL: inhibited

## SIDRVEPYSSTAQVQFD (ABL peptide, fragment of NCAM F3,1) [A strand-loop-B strand fragment of NCAM F3, 1 module]
[2]
  direct binding to FGFR (SPR): capable of direct binding
[3]
  survival of CGN in culture: does not influence survival
[4]
  stimulation of neurite outgrowth: inactive

## KAEWKSLGEEAWHSK (CDL peptide, fragment of NCAM F3,1) [C strand-loop-D strand fragment of NCAM F3, 1 module]
[1]
  apoptosis-associated Caspase-3-like activity: inhibit
  effect on Caspase-3-like activity compared with high KCl (40 mM): comparable
rats
  difference between T1 and T2 of the same animal (presence of social memory): significant differences between T1 and T2
Adult male Wistar rats; [5]
  time of freezing: 42.5%
[2]
  direct binding to FGFR (SPR): capable of direct binding
[3]
  survival of CGN in culture: significantly promote survival
  survival effect compared with the C3 peptide and GDNF: higher
[4]
  stimulation of neurite outgrowth: strong stimulators; also recorded: stimulate neurite outgrowth
